Measured values taken from patent publication US12161722B2, “Bifunctional heterocyclic compound having BTK degradation function via ubiquitin proteasome pathway, and use thereof” (KOREA RESEARCH INSTITUTE OF CHEMICAL TECHNOLOGY, priority 2021, dated 2024).

Legend:
WT BTK protein = molecular target: T1, WT BTK protein (Homo sapiens, UniProt Q06187); test: BTK protein degradation assay (Western blotting), WT BTK; format: cell-based; settings: concentration range accounting for 50% degradation of WT BTK protein, TMD-8 or RAMOS cells, 24 hours
T1 construct: measured for intracellular BTK protein levels by Western blotting; endogenous in cells; host or cells: TMD-8 or RAMOS cells
Summary of the method: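 TMD-8 cells (1×10^6 cells/mL) treated 24 h with compound serial dilutions, then lysed in RIPA. Equal protein loads analysed by Western blot for BTK with GAPDH/β-actin as loading controls; activity binned by concentration giving 50% WT BTK degradation.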

C481S BTK protein = molecular target: T2, C481S BTK protein (Homo sapiens, UniProt Q06187, C481S); test: BTK protein degradation assay (Western blotting), C481S BTK; format: cell-based; settings: concentration range accounting for 50% degradation of C481S BTK protein, 293T BTK MUT (C481S) cells
T2 construct: expressed in transfected cells; host or cells: 293T BTK MUT (C481S) cells
Summary of the method: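 TMD-8, RAMOS or 293T BTK C481S cells were treated 24 h with compounds from 10-fold DMSO stock series (10 to 0.0001 mM). BTK was measured by Western blot with GAPDH/β-actin references. Activity was binned by concentration giving 50% degradation: +++ (0.0001-0.01 μM), ++ (0.01-1 μM), + (1-10 μM), − (>10 μM).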

T1 sequence (Q06187 whole entry): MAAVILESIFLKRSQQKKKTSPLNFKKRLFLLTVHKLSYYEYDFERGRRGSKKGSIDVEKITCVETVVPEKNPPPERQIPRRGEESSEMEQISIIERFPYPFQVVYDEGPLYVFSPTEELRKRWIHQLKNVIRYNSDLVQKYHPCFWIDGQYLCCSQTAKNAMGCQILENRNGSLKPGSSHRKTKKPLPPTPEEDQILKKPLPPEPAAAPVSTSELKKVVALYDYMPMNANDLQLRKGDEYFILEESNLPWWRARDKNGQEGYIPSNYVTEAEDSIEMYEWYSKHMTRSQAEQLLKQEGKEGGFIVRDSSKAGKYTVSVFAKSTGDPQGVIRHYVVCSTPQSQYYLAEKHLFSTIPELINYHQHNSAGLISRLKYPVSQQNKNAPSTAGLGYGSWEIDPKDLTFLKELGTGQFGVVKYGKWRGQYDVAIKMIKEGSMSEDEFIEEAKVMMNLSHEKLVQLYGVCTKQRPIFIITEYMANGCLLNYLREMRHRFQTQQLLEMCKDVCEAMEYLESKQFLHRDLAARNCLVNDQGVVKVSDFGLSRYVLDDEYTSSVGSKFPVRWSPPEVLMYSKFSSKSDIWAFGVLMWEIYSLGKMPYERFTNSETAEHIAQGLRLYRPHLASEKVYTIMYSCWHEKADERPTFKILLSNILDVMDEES
T2 sequence (Q06187 whole entry C481S): as the sequence (Q06187 whole entry) above, with C481S counted along it

In the case of `Cc1cccc(C)c1Nc1nn(C)c2nc(Nc3ccc4c(c3)CN(C(=O)c3cn(CCOCCOCCOCCNC(=O)CNc5cccc6c5C(=O)N(C5CCC(=O)NC5=O)C6=O)nn3)CC4)ncc12` (centres unmarked) [Compound 19, N-(2-(2-(2-(2-(4-(7-((3-((2,6-Dimethylphenyl)amino)-1-methyl-1H-pyrazolo[3,4-d]pyrimidin-6-yl)amino)-1,2,3,4-tetrahydroisoquinoline-2-carbonyl)-1H-1,2,3-triazol-1-yl)ethoxy)ethoxy)ethoxy)ethyl)-2-((2-(2,6-dioxopiperidin-3-yl)-1,3-dioxoisoindolin-4-yl)amino)acetamide], the DC50 (WT BTK protein) is reported as 0.01 to 1 µM and the DC50 (C481S BTK protein) is reported as > 10 µM.

`Cc1cccc(C)c1Nc1nn(C)c2nc(Nc3ccc4c(c3)CN(CCOCCNC(=O)C3CN(c5ccc6c(c5)C(=O)N(C5CCC(=O)NC5=O)C6=O)C3)CC4)ncc12` (centres unmarked) [Compound 27, N-(2-(2-(7-((3-((2,6-Dimethylphenyl)amino)-1-methyl-1H-pyrazolo[3,4-d]pyrimidin-6-yl)amino)-3,4-dihydroisoquinolin-2 (1H)-yl)ethoxy)ethyl)-1-(2-(2,6-dioxopiperidin-3-yl)-1,3-dioxoisoindolin-5-yl)azetidine-3-carboxamide] was tested, and the DC50 (WT BTK protein) was 0.0001 to 0.01 µM and the DC50 (C481S BTK protein) was 1 to 10 µM.

With `Cc1cccc(C)c1Nc1nn(C)c2nc(Nc3ccc4c(c3)CN(C(=O)C3CCN(C(=O)C5CCN(c6ccc7c(c6)C(=O)N(C6CCC(=O)NC6=O)C7=O)CC5)CC3)CC4)ncc12` (centres unmarked) [Compound 54, 5-(4-(4-(7-((3-((2,6-Dimethylphenyl)amino)-1-methyl-1H-pyrazolo[3,4-d]pyrimidin-6-yl)amino)-1,2,3,4-tetrahydroisoquinoline-2-carbonyl)piperidine-1-carbonyl)piperidin-1-yl)-2-(2,6-dioxopiperidin-3-yl)isoindoline-1,3-dione] the DC50 (WT BTK protein) was 0.0001 to 0.01 µM and the DC50 (C481S BTK protein) was 0.01 to 1 µM.

Compound `Cc1cccc(C)c1Nc1nn(C)c2nc(Nc3ccc4c(c3)CN(CC3CCN(C(=O)C5CCN(c6ccc7c(=O)n(C8CCC(=O)NC8=O)nnc7c6)CC5)CC3)CC4)ncc12` (centres unmarked) [Compound 61, 3-(7-(4-(4-((7-((3-((2,6-Dimethylphenyl)amino)-1-methyl-1H-pyrazolo[3,4-d]pyrimidin-6-yl)amino)-3,4-dihydroisoquinolin-2 (1H)-yl)methyl)piperidine-1-carbonyl)piperidin-1-yl)-4-oxobenzo[d][1,2,3]triazin-3 (4H)-yl)piperidin-2,6-one] has a DC50 (WT BTK protein) of 0.0001 to 0.01 µM and a DC50 (C481S BTK protein) of 0.0001 to 0.01 µM.

For `Cc1cccc(C)c1Nc1nn(C)c2nc(Nc3ccc4c(c3)CN(C(=O)CCOCCOCCOCCOCCNC(=O)COc3ccc5c(c3)C(=O)N(C3CCC(=O)NC3=O)C5=O)CC4)ncc12` (centres unmarked) [Compound 16, N-(15-(7-((3-((2,6-Dimethylphenyl)amino)-1-methyl-1H-pyrazolo[3,4-d]pyrimidin-6-yl)amino)-3,4-dihydroisoquinolin-2 (1H)-yl)-15-oxo-3,6,9,12-tetraoxapentadecyl)-2-((2-(2,6-dioxopiperidin-3-yl)-1,3-dioxoisoindolin-5-yl)oxy)acetamide], the DC50 (WT BTK protein) was 0.0001 to 0.01 µM and the DC50 (C481S BTK protein) was 1 to 10 µM.

Work on `Cc1cccc(Cl)c1Nc1nn(C)c2nc(Nc3ccc4c(c3)CN(CC3CCN(c5ccc6c(c5)C(=O)N(C5CCC(=O)NC5=O)C6=O)CC3)CC4)ncc12` (centres unmarked) [Compound 85, 5-(4-((7-((3-((2-Chloro-6-methylphenyl)amino)-1-methyl-1H-pyrazolo[3,4-d]pyrimidin-6-yl)amino)-3,4-dihydroisoquinolin-2 (1H)-yl)methyl)piperidin-1-yl)-2-(2,6-dioxopiperidin-3-yl)isoindoline-1,3-dione] yielded a DC50 (WT BTK protein) of 0.0001 to 0.01 µM and a DC50 (C481S BTK protein) of 0.0001 to 0.01 µM.

For `Cc1cccc(C)c1Nc1nn(C)c2nc(Nc3ccc4c(c3)CN(C(=O)CCOCCOCCOCCOCCNc3ccc5c(c3)C(=O)N(C3CCC(=O)NC3=O)C5=O)CC4)ncc12` (centres unmarked) [Compound 15, 5-((15-(7-((3-((2,6-Dimethylphenyl)amino)-1-methyl-1H-pyrazolo[3,4-d]pyrimidin-6-yl)amino)-3,4-dihydroisoquinolin-2 (1H)-yl)-15-oxo-3,6,9,12-tetraoxapentadecyl)amino)-2-(2,6-dioxopiperidin-3-yl)isoindoline-1,3-dione], the DC50 (WT BTK protein) was 0.0001 to 0.01 µM and the DC50 (C481S BTK protein) was 1 to 10 µM.
